In brackets after ≈: the same amount, converted by molar mass. Several values for one entry are separate records, joined by “and”; a condition that tells them apart may be missing. Equal entries are not always repeated.
Legend:
[1] = test system: Staphylococcus aureus IFO 12732; experiment: Antibacterial activity (MIC) against Staphylococcus aureus IFO 12732; assay type: cell-based; conditions: IFO12732, 37° C., 18 to 20 hours
Method: (§1) The antibacterial activity against Gram-positive bacteria of the compound of the present invention was measured according to a standard method of Nippon Kagaku Ryoho Gakkai [Nippon Kagaku Ryoho Gakkaishi (Journal of the Chemical therapy of Japan), 29, 76(1981)].
(§2) As for gram-positive bacteria, after cultivation in Meuller Hinton broth medium (made by Difco Co., Ltd.), there was prepared a bacterial suspension for inoculation containing about 10^6 of the bacteria per 1 ml of the Meuller Hinton broth medium. On the other hand, the test compound was added to Mueller Hinton agar medium (made by Difco Co., Ltd.) so as to give agar plate medium containing test samples which are twofold serial diluted. Then, the above-mentioned bacterial suspension for inoculation was streaked to each agar medium for about 2 cm with a looped nichrome wire (inner diameter: about 1 mm).
(§3) After that the each agar plate medium was cultured at 37° C. for 18 to 20 hours, the growth of the test bacteria was determined.

[2] = test system: Bacillus subtilis IFO 3134; experiment: Antibacterial activity (MIC) against Bacillus subtilis IFO 3134; assay type: cell-based; conditions: IFO3134, 37° C., 18 to 20 hours
Method: as §1, §2, §3

[3] = test system: Nycobacterium smegmatis ATCC 607; experiment: Antibacterial activity (MIC) against acid-fast bacteria; assay type: cell-based; conditions: 37° C., 40 to 42 hours
Method: As for acid-fast bacteria, after cultured in glycerol broth medium, there was prepared a bacterial suspension for inoculation containing about 10^6 of the bacteria per 1 ml of the medium. On the other hand, there were prepared some glycerol Czapek agar plating media with adding the test compounds, and thereto the bacterial suspension for inoculation was streaked.

UV absorption spectrum = assay type: physicochemical; conditions: in methanol; for molar extinction coefficient: at the λ max of the same line
Method: Each UV absorption spectrum of the compounds of the present invention was measured according to the conventional method, in which methanol was used as a solvent, and thereby molar extinction coefficient thereof was calculated.

5-lipoxygenase = target: T1, 5-lipoxygenase (Cavia porcellus, UniProt A0A286X958); experiment: 5-Lipoxygenase inhibiting activity (5-HETE formation, cytosol of peritoneal exudate cells); assay type: biochemical, Hartley guinea pigs; conditions: 10 μM in the reaction mixture; read-out: Inhibition rate (5-lipoxygenase)
T1 construct: The cytosol fraction was used as an enzyme solution; from tissue; host or cells: peritoneal exudate cells of casein-injected Hartley guinea pigs, 105,000×g cytosol
T1 sequence (A0A286X958 1-674): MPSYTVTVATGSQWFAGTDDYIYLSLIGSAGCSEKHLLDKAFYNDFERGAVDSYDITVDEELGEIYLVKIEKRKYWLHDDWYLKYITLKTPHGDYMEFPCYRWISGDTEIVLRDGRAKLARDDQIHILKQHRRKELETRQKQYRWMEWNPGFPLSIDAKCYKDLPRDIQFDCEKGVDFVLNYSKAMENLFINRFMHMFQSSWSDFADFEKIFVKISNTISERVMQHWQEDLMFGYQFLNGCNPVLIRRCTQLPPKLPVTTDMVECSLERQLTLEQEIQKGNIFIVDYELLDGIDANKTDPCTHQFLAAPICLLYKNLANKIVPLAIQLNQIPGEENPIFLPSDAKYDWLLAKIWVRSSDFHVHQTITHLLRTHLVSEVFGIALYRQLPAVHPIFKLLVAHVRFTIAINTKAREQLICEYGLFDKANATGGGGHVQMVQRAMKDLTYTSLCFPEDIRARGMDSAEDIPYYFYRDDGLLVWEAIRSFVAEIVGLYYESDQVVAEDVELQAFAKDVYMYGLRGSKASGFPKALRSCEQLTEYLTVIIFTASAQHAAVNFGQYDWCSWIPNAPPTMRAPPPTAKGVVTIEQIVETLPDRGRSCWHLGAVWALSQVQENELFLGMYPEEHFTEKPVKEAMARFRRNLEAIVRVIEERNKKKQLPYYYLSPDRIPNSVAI
Method: 5-Lipoxygenase inhibiting activity of the compound of the present invention was measured referring to the method for measuring 5-lipoxygenase activity by K. Ochi et al. [Journal of Biological Chemistry (J. Biol. Chem.), 258, 5754(1983)].
Sterilized 2% solution of casein (pH 7) was injected intraperitoneally into Hartley guinea pigs in a volume of 5 ml/100 g body weight. Fifteen hours later, the guinea pigs were killed and peritoneal exudate cells thereof were collected. After the exudate cells were washed with 17 mM Tris--HCl buffer (pH 7.4) containing 0.74% ammonium to remove contaminating erythrocytes in the exudate cells suspension, the cells were washed with buffer A (130 mM NaCl, 1 mM EDTA, 25 mM sodium phosphate, pH 7.4). The washed cells were suspended in buffer B (50 mM sodium phosphate, 1 mM EDTA, 0.1% gelatin, pH 7.4) at 10^8 cells/ml, sonicated and centrifuged at 10,000×g for 20 minutes under the cold atmosphere. The obtained supernatant was further centrifuged at 105,000×g for 60 minutes under the cold atmosphere. The cytosol fraction was used as an enzyme solution.
The enzyme solution was preincubated with the […] in the presence of 1 mM CaCl2, 1 mM reduced gluthathione (GSH) and 2 mM ATP at 30° C. for 5 minutes in 0.2 ml of a reaction mixture and the mixture was further incubated at 30° C. for 5 minutes by adding 20 μM [1-^14 C] arachidonic acid (0.1 μCi) thereto. The test compounds were dissolved in ethanol to give the reaction mixture containing 2% ethanol as a final concentration. Only ethanol was added to the reaction mixture as a control group.
To the reaction mixture were added 2.5 ml of a mixture of chloroform and methanol (2/1 by volume) and 0.3 ml of 40 mM citric acid to stop the reaction. The mixture was vortexed and an organic solvent layer was evaporated to dryness under nitrogen gas. After dissolving the dried organic layer in a fixed amount of the mixture of chloroform and methanol (2/1 by volume), it was spotted on a silica gel plate (Kiesel gel 60F254, E. Merck) and products were separated using a developer (the organic solvent layer of ethyl acetate/water/2,2,4-trimethylpentane/acetic acid=11/10/5/2 by volume). After the radioactive position of the product was determined by means of a radioautography, an area equivalent to that of 5-hydroxyeicosatetraenoic acid (hereinafter referred to as "5-HETE") was scraped off, and then its radioactivity was measured with a liquid scintillation counter. With regarding the amount of the generated 5-HETE as the 5-lipoxygenase inhibiting activity, the inhibition rate (%) in comparison with the control group was calculated according to the following equation. [formula]

[4] = target: T2, epidermal growth factor receptor-tyrosine kinase complex (Homo sapiens, UniProt P00533); experiment: Tyrosine kinase inhibiting activity (A-431 membrane preparation, EGF-stimulated); assay type: biochemical; conditions: 1 μM in the reaction mixture; read-out: Tyrosine kinase inhibition rate
T2 construct: The membrane preparation was employed in the following measurement without solubilization; endogenous in cells; host or cells: A-431 (ATCC CRL1555), membrane preparation, not solubilized
T2 sequence (P00533 25-1210, one chain of several): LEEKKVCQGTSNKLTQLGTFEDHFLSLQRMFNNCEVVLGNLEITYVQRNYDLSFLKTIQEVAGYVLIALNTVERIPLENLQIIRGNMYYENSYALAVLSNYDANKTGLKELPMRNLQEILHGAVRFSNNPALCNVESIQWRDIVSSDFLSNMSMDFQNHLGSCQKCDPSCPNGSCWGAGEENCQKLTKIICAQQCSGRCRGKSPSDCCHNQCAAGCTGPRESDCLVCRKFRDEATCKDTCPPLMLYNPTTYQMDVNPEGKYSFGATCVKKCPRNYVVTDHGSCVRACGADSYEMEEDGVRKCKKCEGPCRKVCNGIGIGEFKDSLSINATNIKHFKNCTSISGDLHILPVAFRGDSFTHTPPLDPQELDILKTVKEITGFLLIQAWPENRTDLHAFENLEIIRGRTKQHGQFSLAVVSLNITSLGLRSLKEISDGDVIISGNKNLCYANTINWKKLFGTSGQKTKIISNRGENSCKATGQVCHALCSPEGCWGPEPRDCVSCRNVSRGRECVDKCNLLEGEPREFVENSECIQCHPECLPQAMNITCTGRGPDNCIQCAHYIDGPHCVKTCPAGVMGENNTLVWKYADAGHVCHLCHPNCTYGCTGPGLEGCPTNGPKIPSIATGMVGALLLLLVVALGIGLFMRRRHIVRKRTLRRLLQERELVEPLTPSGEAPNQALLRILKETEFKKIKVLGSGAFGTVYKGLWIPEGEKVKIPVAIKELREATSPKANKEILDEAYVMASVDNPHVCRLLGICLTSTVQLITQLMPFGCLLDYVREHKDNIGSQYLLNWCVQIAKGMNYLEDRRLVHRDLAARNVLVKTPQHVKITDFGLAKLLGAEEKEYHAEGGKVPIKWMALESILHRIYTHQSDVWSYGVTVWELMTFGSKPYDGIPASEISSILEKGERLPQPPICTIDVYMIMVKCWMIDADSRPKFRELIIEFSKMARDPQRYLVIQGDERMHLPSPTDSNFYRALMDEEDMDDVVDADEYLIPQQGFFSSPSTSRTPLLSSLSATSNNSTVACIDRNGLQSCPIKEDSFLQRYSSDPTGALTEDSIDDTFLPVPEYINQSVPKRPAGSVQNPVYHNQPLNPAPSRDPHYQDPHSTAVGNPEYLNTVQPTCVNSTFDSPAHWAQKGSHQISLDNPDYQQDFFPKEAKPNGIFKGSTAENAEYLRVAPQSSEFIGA
Method: Tyrosine kinase inhibiting activity of the compound of the present invention was measured referring to a method for measuring tyrosine kinase activity by G. Carpenter or by S. Cohen et al. [J. Biol. Chem., 254, 4884(1979); J. Biol. Chem., 257, 1528(1982)].
Cell line A-431 derived from human carcinoma (ATCC CRL1555) was cultured at 37° C. under the condition of 5% CO2 in Dulbecco's modified Eagle's medium (made by NISSUE PHARMACEUTICAL CO., LTD.) containing 10% by volume fetal bovine serum, 50 μg/ml of streptomycin, 50 IU/ml of penicillin G and 50 μg/ml of kanamycin. […] The membrane preparation was employed in the following measurement without solubilization.
A test compound dissolved in dimethylsulfoxide (hereinafter referred to as "DMSO") was added to a mixture of 20 mM of N-2-hydroxyethylpiperazine-N'-2-ethanesulfonic acid buffer (pH 7.4), 1 mM of MnCl2, 7.5 μg of bovine serium albumin and the membrane preparation (10 μg as protein). After incubation at 0° C. for 5 minutes, 100 ng of epidermal growth factor (hereinafter referred to as "EGF") was added thereto and the mixture was further incubated at 0° C. for 15 minutes. [γ-^32 P]ATP (3000 Ci/mmol, 0.1 μCi) was added thereto to make final volume of 70 μl. After incubation at 0° C. for 15 minutes, 50 μl of the reaction mixture was soaked into Whatman 3 MM filter paper (made by Whatman Ltd.) and immediately the reaction was stopped by an aqueous solution of 10% by weight trichloroacetic acid containing 10 mM sodium pyrophosphate. The filter paper was sufficiently washed with the same solution and then washed with ethanol, and dried. Radioactivity present in the filter paper was measured by liquid scintillation counter (A). Also, radioactivity was measured in case of the reaction without EGF (B), the reaction without the test compound (C), and the reaction without both EGF and the test compound (D) as a control.
Tyrosine kinase inhibition rate (%) was calculated by the following equation. [formula]

[5] = test system: Micrococcus luteus IFO 13867; experiment: Antibacterial activity (MIC) against Micrococcus luteus IFO 13867; assay type: cell-based; conditions: IFO13867, 37° C., 18 to 20 hours
Method: as §1, §2, §3

[6] = target: T3, reverse transcriptase derived from Moloney-Murine Leukemia Virus (M-MLV) (Moloney murine leukemia virus, UniProt P03355); experiment: Inhibiting activity against reverse transcriptase derived from M-MLV; assay type: biochemical; conditions: read-out: Inhibition rate (reverse transcriptase derived from M-MLV); for inhibition at 1 µM: 1 μM in the reaction mixture
T3 construct: reverse transcriptase derived from Moloney-Murine Leukemia Virus; purchased Pharmacia K. K
Method: There was found the following point by using reverse transcriptase derived from Moloney-Murine Leukemia Virus (hereinafter referred to as "M-MLV").
The compound of the present invention was dissolved in DMSO to give a 100 mM solution thereof. Then, the solution was diluted with distilled water containing DMSO to give a solution of the test compound having a defined concentration. A mixed ratio of DMSO and distilled water was adjusted so that the concentration of DMSO at this time is 10% by volume and a final concentration of DMSO at the beginning of a reaction is 1% by volume.
The thus prepared solution of the test compound was mixed with a solution containing 50 mM of Tris--HCl buffer (pH 8.3), 8 mM of MgCl2, 30 mM of NaCl, 50 mM of dithiothreitol (made by Wako Pure Chemical Industries Ltd.), 0.2 mM of thymidine-5'-triphosphate (made by Pharmacia K. K.) and 6 U/ml of reverse transciptase derived from M-MLV (made by Pharmacia K. K.), and preincubated at 37° C. for 30 minutes. After there was added thereto 10 μg/ml of polyadenylic acid (made by PL Biochemicals Co., Ltd.), 0.01 U/ml of oligodeoxy thymidylic acid (made by Pharmacia K. K.) and 10 μCi/ml of [methyl-^3 H] thymidine-5'-triphosphate (made by Amersham Japan Co., Ltd., 47 Ci/mmol) to give a reaction mixture, the mixture was further incubated at 37° C. for 30 minutes, followed by cooling with ice to stop the reaction.
The radioactivity incorporated into deoxyribonucleic acids was measured according to the method of Linteril et al (Science 170, 447 to 449 (1967)). A defined volume of the reaction mixture was soaked into DE-81 filter paper (made by Whatman Ltd.), the filter paper was washed with 5% by weight of Na2 HPO4 solution for three times, and with distilled water and ethanol successively, and then dried. Radioactivity contained in the filter paper was measured by liquid scintillation counter to give the each radioactivity of the test solution groups.
On the other hand, the same procedure as above was carried out using DMSO-distilled water without the test compound instead of using the test solution, to give the value of radioactivity of a control group.
Reverse transcriptase derived from M-MLV inhibition rate (%) was calculated by the following equation. [formula]

SMILES | MIC [1] [mg/L] | MIC [2] [mg/L] | MIC [3] [mg/L] | λ max (UV absorption spectrum) | molar extinction coefficient (UV absorption spectrum) | inhibition at 10 µM (5-lipoxygenase) [%] | inhibition at 1 µM [4] [%] | MIC [5] [mg/L] | inhibition at 1 µM [6] [%] | inhibition at 10 µM ([6]; 10 μM in the reaction mixture) [%]
N#CC(=Cc1cc(Cc2ccccc2)c(O)c(Cc2ccccc2)c1)C(N)=O [Compound 16] | ≤ 15 | ≤ 15 | ≤ 15 | 249 nm and 347 nm | 1.51 × 10^4 and 2.40 × 10^4 | 28 | 100 | ≤ 15 | – | –
O=C1Nc2ccccc2C1=Cc1cc(Cc2ccccc2)c(O)c(Cc2ccccc2)c1 [Compound 4] | – | – | – | 257 nm and 361 nm | 1.87 × 10^4 and 1.80 × 10^4 | 85 | 74 | ≤ 6 | – | –
O=C1NN(c2ccccc2)C(=O)C1=Cc1cc(-c2ccccc2)c(O)c(-c2ccccc2)c1 [Compound 19] | 100 (≈ 231 µM) | 100 (≈ 231 µM) | ≤ 6 | – | – | – | 74 | 50 (≈ 116 µM) | 75 | –
N#CC(=Cc1cc(-c2ccccc2)c(O)c(-c2ccccc2)c1)C(N)=O [Compound 15] | 60 (≈ 176 µM) | 100 (≈ 294 µM) | ≤ 15 | 271 nm and 348 nm | 2.04 × 10^4 and 2.11 × 10^4 | – | 100 | 60 (≈ 176 µM) | – | 59
O=C1NCCC1=Cc1cc(Cc2ccccc2)c(O)c(Cc2ccccc2)c1 [Compound 18] | – | – | – | 304 nm | 1.87 × 10^4 | – | 87 | – | – | –
O=C1NC(=S)SC1=Cc1cc(-c2ccccc2)c(O)c(-c2ccccc2)c1 [Compound 1] | 12 (≈ 30.8 µM) | ≤ 6 | 6 (≈ 15.4 µM) | – | – | – | 23 | ≤ 6 | 96 | –

— US5089516A, “1-phenyl-3,5-pyrazolidinedione hydroxystyrene compounds which have tyrosine kinase inhibiting activity” (Kanegafuchi Kagaku Kogyo Kabushiki Kaisha, priority 1987, dated 1992)
